Assay results: US7794994B2 (Kemeta, LLC, priority 2001, dated 2010)

Assays:
[1] = tested on: S-ADH from X. autotrophicus strain Py2; assay: Secondary alcohol dehydrogenase NADH oxidation spectrophotometric assay; type: biochemical, Xanthobacter autotrophicus strain Py2; conditions: for Relative S-ADH Activity (%) X. Py2, ketone reduction: ketone reduction rates, pH 6.2, 2.5 mM substrate, 0.2 mM NADH, acetone = 100
Protocol: (§1) Assays were performed in 2 mL quartz cuvettes and contained NAD(H) (0.2 mM), potassium phosphate buffer (25 mM), and a source of enzyme (cell-free extracts, column fractions, or purified enzyme) in a total reaction volume of 1 mL at pH 6.2 ([…]) at 30° C. Assays were pre-incubated for 1.5 min. at 30° C. with all assay components except substrate. Assays were initiated by addition of substrate (2.5 mM) and monitored over time by measuring the change in absorbance at 340 nm (∈340 of 6.22 mM^−1·cm^−1 for NADH).
Data analysis. Kinetic constants (Km and Vmax) were calculated by fitting initial rate data to the Michaelis-Menten equation and using the software KaleidaGraph Fourth Edition, (Synergy Software, Reading, Pa.).

[2] = molecular target: T1, S-ADH from T. brockii (Thermoanaerobacter brockii, UniProt P14941); assay: S-ADH spectrophotometric assay, T. brockii S-ADH; type: biochemical, Thermoanaerobium brockii; conditions: for Relative S-ADH Activity (%) T. brockii, ketone reduction: ketone reduction rates, pH 6.2, 2.5 mM substrate, 0.2 mM NADPH, acetone = 100
T1 sequence (P14941 1-352): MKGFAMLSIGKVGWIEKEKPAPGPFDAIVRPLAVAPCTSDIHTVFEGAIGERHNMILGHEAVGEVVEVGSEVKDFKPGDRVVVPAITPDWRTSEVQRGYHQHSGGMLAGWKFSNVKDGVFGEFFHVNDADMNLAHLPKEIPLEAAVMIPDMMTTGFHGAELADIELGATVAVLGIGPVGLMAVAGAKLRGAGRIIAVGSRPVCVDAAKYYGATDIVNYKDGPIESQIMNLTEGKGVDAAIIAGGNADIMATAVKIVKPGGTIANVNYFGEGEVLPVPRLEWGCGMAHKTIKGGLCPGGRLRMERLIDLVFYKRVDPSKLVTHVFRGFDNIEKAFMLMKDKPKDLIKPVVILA
Protocol: […] Assays were pre-incubated for 1.5 min. at 30° C. with all assay components except substrate. Assays were initiated by addition of substrate (2.5 mM) and monitored over time by measuring the change in absorbance at 340 nm (∈340 of 6.22 mM^−1·cm^−1 for NADH).

[3] = tested on: S-ADH from C. boidinii; assay: S-ADH spectrophotometric assay, C. boidinii S-ADH; type: biochemical, Candida boidinii; conditions: pH 7.6, 5 mM substrate; for Relative S-ADH Activity (%) C. boidinii, ketone reduction: ketone reduction rates, 0.2 mM NADH, acetone = 100; for Relative S-ADH Activity (%) C. boidinii, alcohol oxidation: alcohol oxidation rates, 0.2 mM NAD+, 2-propanol = 100
Protocol: as §1, with “Assays were initiated by addition of substrate (2.5 mM) and monitored over time by measuring the change in absorbance at 340 nm (∈340 of 6.22 mM^−1·cm^−1 for NADH).” left out

[4] = tested on: S-ADH from M. vaccae JOB-5; assay: S-ADH spectrophotometric assay, propane-grown M. vaccae JOB-5; type: biochemical, Mycobacterium vaccae strain JOB-5; conditions: for Relative S-ADH Activity (%) JOB 5, ketone reduction: ketone reduction rates, pH 6.2, 2.5 mM substrate, 0.2 mM NADH, acetone = 100
Protocol: as §1

[5] = tested on: S-ADH from strain IP-1; assay: S-ADH spectrophotometric assay, partially purified S-ADH of isolate IP-1; type: biochemical, isopropanol-grown bacterial strain TDCC IP-1; conditions: for Relative S-ADH Activity (%) IP-1, ketone reduction: ketone reduction rates, pH 6.2, 2.5 mM substrate, 0.2 mM NADH, acetone = 100
Protocol: Protein purifications. […] Secondary alcohol dehydrogenase (S-ADH) from X. autotrophicus Py2 was purified via the following protocol. Cell-free extracts (380 mL) of isopropanol-grown X. autotrophicus Py2 (150 g) were prepared as described above, and applied to a 5×15 cm column of DEAE-Sepharose FAST FLOW (Diethylaminoethyl cross-linked agarose bead material; Catalog number 17-0709-10, Amersham Pharmacia Biotech, Piscataway, N.J.)) equilibrated in buffer A (25 mM MOPS (3-(N-morpholino)propanesulfonic acid), pH 7.6, 5% glycerol, 1 mM dithiothreitol) at a flow rate of 10 mL/min. After loading, the column was washed with […] buffer A and developed with a 2400 mL linear gradient of 90-290 mM KCl in buffer A. Fractions containing S-ADH activity were pooled and dialyzed against 2 L of 25 mM potassium phosphate (pH 6.2) containing 5% glycerol (buffer B) for 16 h at 4° C. […] After washing the column with 30 mL of buffer B, S-ADH was eluted with 20 mL of buffer A containing 10 mM NAD^+. Fractions containing S-ADH were then dialyzed against 2 L of buffer A for 16 h at 4° C., concentrated by ultrafiltration (using a YM30 ultrafiltration membrane; catalog no. 13722, from Millipore, Bedford, Mass.), and frozen in liquid nitrogen. Partially purified S-ADH from bacterial screen cultures was prepared as follows: cell-free extracts from 1 to 5 g of cell paste were prepared as described above and applied to a 5 mL HI TRAP Q column (quaternary, tetraethylammonium, cross-linked agarose bead material for use as an anion exchange matrix; catalog number 17-1153-01, Amersham Pharmacia Biotech) equilibrated in 100 mM MOPS, pH 7.6, containing 5% (v/v) glycerol (buffer C). The column was washed with 10 mL buffer C and developed with a 100 mL linear gradient of 0 to 100 mM NaCl in buffer C. Fractions containing S-ADH activity were pooled, concentrated to 0.5 mL using a 30 kDa MWCO (“molecular weight cut-off”) centrifugal membrane (catalog number UFV4BTK25, Millipore), and stored at −80° C.
as §1

[6] = tested on: 3-enzyme system (S-ADH coupled to lactate dehydrogenase and pyruvate oxidase); assay: S-ADH coupled to H2O2 formation electrochemical assay (3-enzyme system), interference compounds; type: biochemical, X. autotrophicus Py2; conditions: Acetone plus 10 mM ethanol, 50 μM isopropanol or 50 μM isobutanol; data not shown
Protocol: Secondary alcohol dehydrogenase coupled to H2O2 formation electrochemical assay. […] Before measurements the electrode surface was polished using Al2O3 paste for 1 min. and then rinsed with deionized water, sonicated for 1 min. and rinsed with water again. The polished Pt electrode was then pretreated electrochemically by applying 10 cycles of 100 mV/s from +200 mV to +900 mV. All potentials were referenced versus a Ag/AgCl electrode (BAS part number MF-2078). Assays contained potassium phosphate (100 mM, pH 7.2), purified S-ADH (1 U/mL), NADH (201 μM), lactate (100 mM), lactate dehydrogenase (5 U/mL), pyruvate oxidase (4 U/mL), flavin adenine dinucleotide (0.01 mM), cocarboxylase (0.2 mM), in a total volume of 0.5 mL. […] After a 2 min. incubation period, the potential was stepped from open circuit to 350 mV.

[7] = alcohol oxidation rates, pH 7.6, 2.5 mM substrate, 0.2 mM NAD+, 2-propanol = 100, NA = no activity detected

Compound	Relative S-ADH Activity (%) X. Py2, ketone reduction [1]	Relative S-ADH Activity (%) T. brockii, ketone reduction [2]	Relative S-ADH Activity (%) C. boidinii, ketone reduction [3]	Relative S-ADH Activity (%) JOB 5, ketone reduction [4]	Relative S-ADH Activity (%) IP-1, ketone reduction [5]	Relative S-ADH Activity (%) C. boidinii, alcohol oxidation [3]	other results
CCC(=O)CC [3-Pentanone]	180%	49%	60%	26%	5%	–	–
CCCC(C)O (stereo not drawn) [2-Pentanol]	–	–	–	–	–	22%	Relative S-ADH Activity (%) X. Py2, alcohol oxidation [1, 7]: 157%; Relative S-ADH Activity (%) T. brockii, alcohol oxidation ([2]; alcohol oxidation rates, pH 7.6, 2.5 mM substrate, 0.2 mM NADP+, 2-propanol = 100, NA = no activity detected): 38%; Relative S-ADH Activity (%) JOB 5, alcohol oxidation [4, 7]: 68%; Relative S-ADH Activity (%) IP-1, alcohol oxidation [5, 7]: 18%
CCCC(C)=O [2-Pentanone]	198%	59%	16%	185%	44%	–	–
CCCCCO [1-Pentanol]	–	–	–	–	–	8%	specific activity, alcohol oxidation ([1]; at pH 7.8): No activity
CC(C)CO [isobutanol]	–	–	–	–	–	–	interference with the acetone measurement (current response) [6]: do not interfere
